Reference: PubChem BioAssay (NCI)
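Tested at 5 concentrations; 48 h exposure; 96-well plates; endpoints linearly interpolated, else capped at highest concentration. Abbreviation: GI50, concentration required for 50% inhibition of growth. TGI is the concentration that stops growth completely.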

What was measured:
Experiment in all cases: inhibition of tumour cell growth, NCI panel, 48 h
[1] = system: COLO 205 colon
[2] = system: M14 melanoma
[3] = system: OVCAR-3 ovarian
[4] = system: HT29 colon
[5] = system: DU-145 prostate
[6] = system: EKVX NSCLC
[7] = system: NCI/ADR-RES ovarian
[8] = system: RPMI-8226 leukemia
[9] = system: MCF7 breast
[10] = system: A498 renal
[11] = system: IGROV1 ovarian
[12] = system: SF-268 CNS
[13] = system: LOX IMVI melanoma
[14] = system: HCC-2998 colon
[15] = system: T-47D breast
[16] = system: RXF 393 renal
[17] = system: UACC-62 melanoma
[18] = system: OVCAR-8 ovarian
[19] = system: SR leukemia
[20] = system: SW-620 colon
[21] = system: TK-10 renal
[22] = system: SK-MEL-2 melanoma
[23] = system: PC-3 prostate
[24] = system: SN12C renal
[25] = system: OVCAR-4 ovarian
[26] = system: HCT-116 colon
[27] = system: KM12 colon
[28] = system: HOP-92 NSCLC
[29] = system: SNB-75 CNS
[30] = system: CAKI-1 renal

Q: For O=C(COc1ccc(NC(=O)Nc2ccc(Cl)c(Cl)c2)cc1)N=Nc1c(O)[nH]c2ccc(Cl)cc12, which GI50 [1] is on record?
A: 1.76 µM

Q: And the TGI [1]?
A: 3.35 µM

Q: And the GI50 [2]?
A: 1.81 µM

Q: What about the TGI [2] of the same molecule?
A: 3.71 µM

Q: What about the GI50 [3] of the same molecule?
A: 1.97 µM

Q: And the TGI [3]?
A: 4.1 µM

Q: What about the GI50 [4] of the same molecule?
A: 1.89 µM

Q: And the TGI [4]?
A: 3.58 µM

Q: And the GI50 [5]?
A: 2.96 µM

Q: And the TGI [5]?
A: 8.81 µM

Q: What about the GI50 [6] of the same molecule?
A: 2.65 µM

Q: What about the TGI [6] of the same molecule?
A: 9.28 µM

Q: And the GI50 [7]?
A: > 100 µM

Q: What about the TGI [7] of the same molecule?
A: > 100 µM

Q: What about the GI50 [8] of the same molecule?
A: 2.44 µM

Q: What about the TGI [8] of the same molecule?
A: 6.2 µM

Q: What about the GI50 [9] of the same molecule?
A: 2.08 µM

Q: What about the TGI [9] of the same molecule?
A: 5 µM

Q: What about the GI50 [10] of the same molecule?
A: 2.06 µM

Q: And the TGI [10]?
A: 5.28 µM

Q: What about the GI50 [11] of the same molecule?
A: 2.31 µM

Q: And the TGI [11]?
A: 5.73 µM

Q: And the GI50 [12]?
A: 2.23 µM

Q: And the TGI [12]?
A: 5.18 µM

Q: And the GI50 [13]?
A: 1.73 µM

Q: And the TGI [13]?
A: 3.23 µM

Q: What about the GI50 [14] of the same molecule?
A: 2.58 µM

Q: And the TGI [14]?
A: 7.1 µM

Q: What about the GI50 [15] of the same molecule?
A: 2.01 µM

Q: What about the TGI [15] of the same molecule?
A: 4.76 µM

Q: What about the GI50 [16] of the same molecule?
A: 1.62 µM

Q: And the TGI [16]?
A: 3.13 µM

Q: And the GI50 [17]?
A: 1.98 µM

Q: What about the TGI [17] of the same molecule?
A: 4.45 µM

Q: And the GI50 [18]?
A: 2.3 µM

Q: And the TGI [18]?
A: 5.36 µM

Q: What about the GI50 [19] of the same molecule?
A: 2.18 µM

Q: And the TGI [19]?
A: 9.97 µM

Q: And the GI50 [20]?
A: 1.79 µM

Q: What about the TGI [20] of the same molecule?
A: 3.59 µM

Q: What about the GI50 [21] of the same molecule?
A: 2.86 µM

Q: What about the TGI [21] of the same molecule?
A: 9.89 µM

Q: And the GI50 [22]?
A: 2.07 µM

Q: What about the TGI [22] of the same molecule?
A: 4.83 µM

Q: And the GI50 [23]?
A: 2.1 µM

Q: And the TGI [23]?
A: 5.07 µM

Q: What about the GI50 [24] of the same molecule?
A: 1.93 µM

Q: What about the TGI [24] of the same molecule?
A: 3.67 µM

Q: And the GI50 [25]?
A: 2.26 µM

Q: What about the TGI [25] of the same molecule?
A: 6.15 µM

Q: What about the GI50 [26] of the same molecule?
A: 1.85 µM

Q: What about the TGI [26] of the same molecule?
A: 3.47 µM

Q: And the GI50 [27]?
A: 1.98 µM

Q: What about the TGI [27] of the same molecule?
A: 4.38 µM

Q: What about the GI50 [28] of the same molecule?
A: 2.18 µM

Q: What about the TGI [28] of the same molecule?
A: 4.87 µM

Q: And the GI50 [29]?
A: 1.58 µM

Q: And the TGI [29]?
A: 3.49 µM

Q: And the GI50 [30]?
A: 2.21 µM
